Experimental findings from US9573907B2, “2, 4-pyrimidine derivatives and use thereof” (SNU R&DB FOUNDATION, priority 2009, dated 2017) are described below.

“Also recorded” adds a separate entry of the source.

One data set deals with HL-60 cell lines. Nature of the data set: FACS analysis of gp96 on cell surface of HL-60 cell lines. Format: cell-based. Conditions: 1 mM, 24 hours. As for the experimental part: FIG. 35 is a graph showing an FACS analysis result using gp96 antibody, on the amount of gp96 protein existing on a cell surface, when HL-60 cell lines were treated with a 2,4-pyrimidine derivatives at a concentration of 1 mM for 24 hours.
Also, HL-60 cell lines were treated with a 2,4-pyrimidine derivative at a concentration of 1 mM for 24 hours, and the amount of gp96 protein existing on a cell surface was analyzed through flow cytometry (FACS) using gp96 antibody.

Data set [1] concerns the target interaction of gp96 and AIMP1 (Mus musculus, UniProt P08113). Put plainly: ELISA assay of gp96-AIMP1 interaction. Format: binding, murine. The settings on record: read-out: Inhibition rate (at 100 nM; %). As for the experimental part:
FIGS. 1 to 9 represent suppression of cell surface gp96 by GPM1 reduces DC maturation and B220^+ population in gp96tm transgenic mice. (FIG. 1) Chemical structure of GPM1 (Formula 2) and negative control (NC1, Formula 16) used in this study. (FIG. 2) The dose-dependent effect of GPM1 or NC1 on the AIMP1-gp96 interaction using ELISA method as described. The indicated concentrations of the two compounds and biotin-conjugated murine gp96 were added to AIMP1 coated on the surface of microtiter wells, and gp96 bound to AIMP1 was detected with strepavidin-conjugated peroxidase. (FIG. 3) The binding of GPM1 to gp96 was examined by surface plasmon resonance (SPR). GPM1 at the indicated concentrations was injected to immobilized gp96 and the binding was measured using Biacore 3000. The response data were processed using data from a reference surface and buffer injections. Each concentration was tested in triplicate. (FIG. 4) RAW24.7 cells were treated with 10 μM GPM1 for 24 h. Cell lysates were immunoprecipitated with control IgG or anti-gp96 antibody and the immunoprecipitated proteins were immunoblotted with anti-KDELR1, antiAIMP1 and gp96 antibodies. WCL means whole cell lysate. (FIG. 5) Splenocytes isolated from C57BL/6 mice were treated with vehicle (5% DMSO in PBS), GPM1, or NC1 (10 μM, 24 h), stained for cell surface gp96, and followed by flow cytometry. (FIG. 6) AIMP1^+/+ or AIMP1^−/− mouse splenocytes (2×10^5 cells) were treated with vehicle, GPM1, or NC1 (10 μM, 24 h), fixed, and then co-cultured with WT bone marrow-derived DCs (1×10^4 cells) for 16 h. TNFα secreted from BMDCs was quantified by ELISA. (FIG. 7) Percentage of gp96^+ MHC class II^+ cell population in splenocytes from gp96tm transgenic female mice treated with vehicle (control) (n=9), GPM1 (n=9), and dexamethasone (n=7) at 30 mg/kg. (FIG. 8) Cell surface ICOSL of CD11b^+CD11c^+ (myeloid DCs), CD11b^−CD11c^+ (lymphoid DCs), and CD11b^+CD11c^− (macrophages) cell populations in splenocytes from gp96tm transgenic female mice treated with vehicle (n=9) and GPM1 (n=9) at 30 mg/kg. (FIG. 9) Percentage of B220^+, MHC class II^+, CD4^+, CD8^+, CD4 and CD8 double negative cell populations in splenocytes from gp96tm transgenic female mice treated with vehicle (n=9), GPM1 (n=9), and dexamethasone (n=7) at 30 mg/kg. Student t-test P values comparing GPM1-treated mice with control are indicated.
96-well plates (Maxisorp., F96; Nunc) were coated with 500 ng/well AIMP1 in PBS (pH 7.4). After washing, the remaining sites were blocked with PBS containing 1% BSA for 1 h. Binding of 10 ng/well biotin-conjugated gp96 was performed in Tris buffer (25 mM Tris, 10 mM NaCl and 0.4% Triton X-100). Each of the 6,580 compounds was added to the well at 100 nM and the plates were washed and incubated with HRP conjugated streptavidin in PBS containing 0.1% BSA and 0.1% Tween 20 for 30 min. The plates were washed, and then substrate was added to each well. The absorbance was monitored at 450 nm.
To identify chemicals that can affect membrane translocation of gp96, the present inventors employed the interaction of gp96 with AIMP1 as the screening target. For this screening, the present inventors chose 6,482 chemicals with different pharmacophore representing 150,000 different chemicals deposited in Korea Chemical Bank and identified the compounds that can inhibit the interaction of the two proteins. For the screening, the present inventors set up a modified ELISA method using recombinant AIMP1 and gp96 proteins as described in Experimental methods. Each of the tested compounds gave different effect on the interaction of the two proteins (FIG. 19). And the present inventors have selected 12 compounds that inhibited the interaction more than 95% of the control at 0.1 μM (Table 1). The present inventors obtained 1251 additional compounds derived from these 12 initial hits and tested them again for their activities against the gp96-AIMP1 interaction.

The next data set deals with gp96tm transgenic mice. The method, then: Female gp96tm transgenic mice (Proc Natl Acad Sci USA. 2003 December 23; 100(26): 15824-15829) were bred and maintained at the animal center for pharmaceutical research, Seoul National University. We used age-matched, 12-26 weeks old mice in each experimental group. To suppress cell surface gp96 we used GPM1 compound. Dexamethasone and GPM1 were dissolved in 5% DMSO in phosphate-buffered saline (PBS) and control vehicle was 5% DMSO in PBS. Compounds were administered i.p. every 24 h for 2 months (30 mg/kg/day). Three groups of each 9 mice were examined. All procedures were conducted in accordance with the Guide for the Care and Use of Laboratory Animals, published by the Korean National Institute of Health.
Spleen and lymph node cell suspensions were prepared by grindling tissue through sterile mesh and erythrocytes were lysed with RBC lysis buffer (eBioscience, CA). For surface staining, antibodies were fluoresceinisothiocyanate (FITC)-, phycoerythrin (PE)-, PerCP-, or APC-conjugated. Antibodies used were CD4 (RM4-5, H129.12), CD8 (53-6,7), B220 (RA3-6B2), CD11b (M1/70), CD11c (HL3), CD44 (IM7), CD62L (MEL-14), CD69 (H1.2F3), CD25 (PC61.5), IgM (11/41), IgD (11-26C.2a) (BD Pharmingen, CA), MHC class II (M5/114.15.2), Foxp3 (FJK-16s) (eBioscience, CA), and gp96 (Santacruz, Calif.). After staining, cells were washed and analyzed on a FACS can flow cytometer using CellQuest software (BD Bioscience, Mountain View, Calif.).
Kidney tissue sections of gp96tm transgenic mice were fixed in 10% formaldehyde in PBS and dehydrated using an alcohol gradient. After paraffin infiltration, the tissues were sectioned using a microtome, stained with hematoxylin and eosin (H&E) and analyzed by light microscopy. For immunofluorescent staining, kidneys were sectioned with a cryostat. These cryosections were blocked with normal goat serum, stained with FITC-conjugated goat anti-mouse Ig (BD pharmingen, CA), and then observed by fluorescent microscopy.
The present inventors compared the effect of GPM1 with phosphate-buffered saline containing 5% DMSO and dexamethasone (Dex), an immunosuppressant of glucocorticoid family as negative and positive control, respectively. Each group consisted of age-matched nine female mice. […] After 2 month, the present inventors isolated MHC class II^+ splenocytes and lymph nodes from vehicle-, Dex-, and GPM1-treated mice and determined the portion of gp96^+ cells by flow cytometry.

Chain of interaction of gp96 and AIMP1 (P08113 22-802): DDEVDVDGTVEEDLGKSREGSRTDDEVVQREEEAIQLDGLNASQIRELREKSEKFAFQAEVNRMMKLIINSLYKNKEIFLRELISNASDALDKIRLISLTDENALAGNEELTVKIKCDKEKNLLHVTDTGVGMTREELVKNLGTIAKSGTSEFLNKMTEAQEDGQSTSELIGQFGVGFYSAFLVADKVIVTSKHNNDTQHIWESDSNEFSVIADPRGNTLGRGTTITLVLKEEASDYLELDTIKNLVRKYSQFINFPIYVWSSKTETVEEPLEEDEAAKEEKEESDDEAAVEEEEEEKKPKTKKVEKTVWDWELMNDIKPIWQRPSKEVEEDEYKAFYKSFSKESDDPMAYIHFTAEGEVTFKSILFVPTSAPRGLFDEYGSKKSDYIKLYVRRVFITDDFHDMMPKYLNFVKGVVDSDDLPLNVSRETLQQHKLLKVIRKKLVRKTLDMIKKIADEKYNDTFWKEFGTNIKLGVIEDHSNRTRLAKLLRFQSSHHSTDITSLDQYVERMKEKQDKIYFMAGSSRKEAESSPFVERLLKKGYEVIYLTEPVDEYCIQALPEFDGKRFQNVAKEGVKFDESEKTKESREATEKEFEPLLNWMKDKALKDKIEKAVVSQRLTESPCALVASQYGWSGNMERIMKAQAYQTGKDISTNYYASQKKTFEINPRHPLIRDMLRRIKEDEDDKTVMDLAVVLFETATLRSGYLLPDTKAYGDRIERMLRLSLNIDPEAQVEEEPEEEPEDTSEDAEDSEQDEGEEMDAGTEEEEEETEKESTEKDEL

On to `COc1cc(OC)nc(O[C@H](C(=O)O)C(C)C)n1` [KR-S-022, L-2-(4,6-Dimethoxy-pyrimidin-2-yloxy)-3-methyl-butyric acid], for which the “amount of gp96 protein existing on a cell surface” value (“amount of gp96 protein existing” for short) with HL-60 cell lines is reported as “better effects than KR-S-015”.

As to `CC(C)(C)Oc1ncc(-c2ccccn2)c(OC(C)(C)C)n1` [Formula 13, 2,4-di-tert-butoxy-5-(pyridin-2-yl)pyrimidine], the inhibition at 0.1 µM in data set [1] amounted to 86%. For `COc1cc(OC)nc(O[C@@H](C(=O)O)c2ccccc2)n1` [Formula 8, (R)-2-(4,6-dimethoxypyrimidin-2-yloxy)-2-phenylacetic acid], the inhibition at 0.1 µM in data set [1] is 30%. Take `COc1cc(OC)nc(OC(C(=O)N(C)OC)C(C)C)n1` (stereo not drawn) [KR-S-006, 2-(4,6-dimethoxy-pyrimidin-2-yloxy)-N-methoxy-3,N-dimethyl-butyl amide]: the “amount of gp96 protein existing” value in the data set with HL-60 cell lines is given as “better effects than KR-S-015; also recorded: better than ester (KR-S-010) or acid (KR-S-009)”. `COC(=O)[C@H](C)Oc1nc(OC)cc(OC)n1` [KR-S-011, L-2-(4,6-Dimethoxy-pyrimidin-2-yloxy)-propionic acid methyl ester]: in the data set with HL-60 cell lines, the “amount of gp96 protein existing” value was “better effects than KR-S-015; also recorded: better than isopropyl (KR-S-009, KR-S-010)”.

For the compound `COC(=O)CC(C)Oc1nc(OC)cc(OC)n1` [KR-S-014, D-3-(4,6-Dimethoxy-pyrimidin-2-yloxy)-butyric acid methyl ester], in the data set on HL-60 cell lines, the “amount of gp96 protein existing” value was “better effects than KR-S-015”. For `CCN(CC)C(=O)C(Oc1nc(OC)cc(OC)n1)C(C)C` (stereo not drawn) [KR-S-001, 2-(4,6-Dimethoxy-pyrimidin-2-yloxy)-N,N-diethyl-3-methyl-butyl amide], the “amount of gp96 protein existing” value in the data set on HL-60 cell lines was “better effects than KR-S-015; also recorded: better than ester (KR-S-010) or acid (KR-S-009)”. Take `CCCCNC(=O)C(Oc1nc(OC)cc(OC)n1)c1ccccc1` (stereo not drawn) [KR-S-020, N-Butyl-2-(4,6-dimethoxy-pyrimidin-2-yloxy)-2-phenyl-acetamide]: the “amount of gp96 protein existing” value with HL-60 cell lines is listed as “better effects than KR-S-015”. `Oc1nc(Oc2ccc(F)c(C(F)(F)F)c2)cc(Oc2ccc(F)c(C(F)(F)F)c2)n1` [Formula 14, 4,6-bis(4-fluoro-3-(trifluoromethyl)phenoxy)pyrimidin-2-ol]: the inhibition at 0.1 µM in data set [1] was determined as 84%. In the case of `C[C@@H]1C[C@H]2[C@@H]3CCC4=CC(=O)C=C[C@]4(C)[C@@]3(F)[C@@H](O)C[C@]2(C)[C@@]1(O)C(=O)CO` [dexamethasone, reference compound], the “adverse effects / death during administration” value with gp96tm transgenic mice (2-month intraperitoneal administration, 30 mg/kg) is on record as “two of nine”. Further, in the data set on gp96tm transgenic mice (mouse, in vivo, 30 mg/kg/day), the “total cell count (spleen)” value is recorded as 4.80 ± 2.38 × 10^5. In addition, in the data set on gp96tm transgenic mice (splenocytes, after 2 month, 30 mg/kg), the “percentages of gp96+ MHC class II+ cells” value is about 25%.

Regarding `COc1cc(OC)nc(Oc2ccncc2)n1` [Formula 11, 4,6-dimethoxy-2-(pyridin-4-yloxy)pyrimidine], the inhibition at 0.1 µM in data set [1] was found to be 95%. Regarding `COC(=O)C(Oc1nc(OC)cc(OC)n1)c1ccc(Br)cc1` (stereo not drawn) [Formula 4, methyl 2-(4-bromophenyl)-2-(4,6-dimethoxypyrimidin-2-yloxy)acetate], the inhibition at 0.1 µM in data set [1] was determined as 94%. On to `COC(=O)C(Oc1nc(OC)cc(OC)n1)C(C)C` (stereo not drawn) [Formula 5, methyl 2-(4,6-dimethoxypyrimidin-2-yloxy)-3-methylbutanoate], for which, in data set [1], the inhibition at 0.1 µM came to 82%. “2-(4,6-dimethoxy-pyrimidin-2-yloxy)-N-isopropyl-3-methyl-butyl amide [KR-S-005]”: the “amount of gp96 protein existing” value with HL-60 cell lines is reported as “better effects than KR-S-015; also recorded: better than ester (KR-S-010) or acid (KR-S-009)”. Regarding `COc1cc(OC)nc(O[C@H](C)C(=O)O)n1` [KR-S-023, D-2-(4,6-Dimethoxy-pyrimidin-2-yloxy)-propionic acid], the “amount of gp96 protein existing” value with HL-60 cell lines was “better effects than KR-S-015; also recorded: better than isopropyl (KR-S-009, KR-S-010)”. Consider `CC(C)(C)Oc1cc(OC(C)(C)C)nc(Oc2cccnc2)n1` [Formula 12, 4,6-di-tert-butoxy-2-(pyridin-3-yloxy)pyrimidine], for which the inhibition at 0.1 µM in data set [1] is 86%. As to `COc1nc(OCc2ccccc2)nc(OC)c1C(N)=O` [Formula 9, 2-(benzyloxy)-4,6-dimethoxypyrimidine-5-carboxamide], in data set [1], the inhibition at 0.1 µM came to 90%. On to `COC(=O)C(C)Oc1nc(C)c(Cl)c(OC)n1` (stereo not drawn) [Formula 3, methyl 2-(5-chloro-4-methoxy-6-methylpyrimidin-2-yloxy)propanoate], for which, in data set [1], the inhibition at 0.1 µM stood at 97%.

Consider `COC(=O)C(Oc1nc(OC)cc(OC)n1)c1cccs1` (stereo not drawn) [Formula 6, methyl 2-(4,6-dimethoxypyrimidin-2-yloxy)-2-(thiophen-2-yl)acetate], for which the inhibition at 0.1 µM in data set [1] turned out to be 71%.

In the case of `COc1cc(OC)nc(OCc2ccccc2Cl)n1` [Formula 10, 2-(2-chlorobenzyloxy)-4,6-dimethoxypyrimidine], the inhibition at 0.1 µM in data set [1] stood at 76%.

With `COc1cc(OC)nc(OC(C(=O)O)c2ccccc2)n1` (stereo not drawn) [Formula 7, 2-(4,6-dimethoxypyrimidin-2-yloxy)-2-phenylacetic acid], the inhibition at 0.1 µM in data set [1] stood at 99%.

On to `COc1cc(OC)nc(Oc2cccnc2N)n1` [Formula 15, 3-(4,6-dimethoxypyrimidin-2-yloxy)pyridin-2-amine], for which, in data set [1], the inhibition at 0.1 µM is 54%.
